These results are taken from publication PMC8519022, “Diarylethene‐Based Photoswitchable Inhibitors of Serine Proteases” (Angewandte Chemie (International Ed. in English), 2021).

A word on the MIC: it is the lowest concentration that inhibits growth of the organism. A word on the IC50: it is the concentration that gives 50% inhibition. As a reminder, the Ki is a dissociation constant, usually derived from enzyme kinetics or from competition with a known ligand. A high value points to weaker binding.

For one data set, the system named is other E. coli strains. The note with it: other E. coli strains in MHB medium; ref S7; cited from earlier work.
The procedure of data set [1]:
The photostability in repeated cycles of reversible photoisomerization was studied on three selected compounds (linear three-peptide […]
samples were prepared in the same manner as for UV-Vis absorption characterization, namely at 20 mM in deoxygenated water.
The UV irradiation was done at spectral range of 320 -400 nm, 167 mW/cm 2 for 15 s; the visible light irradiation at 570 nm, 143 mW/cm2 for 60 s (both using LUMATEC® light source).
Figure S3. Photostability study of the three selected peptides at 20 mM in deoxygenated water at 22°C in 15 cycles of reversible photoisomerization with visible (570 nm, 143 mW/cm2 for 60 s) and UV light (320-400 nm, 167 mW/cm2 for 15 s). The left plots show absorption spectra after each 5 cycles (normalized at 575 nm for ring-closed forms). The right plots show the % of ring-closed form measured as absorbance at 575 nm.

Data set [2] deals with T1, trypsin (Bos taurus, UniProt P00760).
T1 sequence (P00760 24-246): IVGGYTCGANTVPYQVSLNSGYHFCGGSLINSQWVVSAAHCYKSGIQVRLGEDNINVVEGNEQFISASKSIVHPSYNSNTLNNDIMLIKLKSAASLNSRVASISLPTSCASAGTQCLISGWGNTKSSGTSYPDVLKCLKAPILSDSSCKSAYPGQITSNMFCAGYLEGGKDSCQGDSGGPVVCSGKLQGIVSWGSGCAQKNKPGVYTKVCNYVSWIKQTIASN
Kind of data set: Trypsin inhibition, IC50 at fixed enzyme and substrate concentration. The data set is classed as biochemical. The source says: (§1) 6. Protease inhibition assays
(§2) With the second method, using
(§3) EpochTM 2 microplate spectrophotometer.
(§4) deionized ultrapure water.
(§5) concentration to higher). […] The
(§6) inhibitor) as the 100% enzyme activity.

Data set [3] addresses T2, Bos taurus trypsin 1 (T1) (Bos taurus, UniProt P00760).
T2 sequence (P00760 24-246): T1 sequence (P00760 24-246)
The data set is described as follows: Trypsin inhibition, Ki by Lineweaver-Burk analysis.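 Also: trypsin activity followed by spectrophotometric hydrolysis kinetics of the chromogenic substrate BAPNA in Tris buffer, Ki obtained from double-reciprocal Lineweaver–Burk plots at several substrate concentrations.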
Description: (§7) The inhibition of trypsin and α-chymotrypsin was investigated by two methods. First, the inhibition was determined at a fixed enzyme and substrate concentration, whereas the inhibitor concentration varied. By plotting the protease activity against an inhibitor’s concentration, IC50 (the half-maximal inhibitory concentration) was determined.
(§8) Lineweaver–Burk analysis (see below), the Ki values for all peptide inhibitors were determined with high accuracy.
(§9) All measurements were performed with p-nitroaniline-based chromogenic substrates (λabs = 405 nm) in 96-well microtiter plates using
EpochTM 2 microplate spectrophotometer. For trypsin measurements the Tris buffer (50 mM Tris-HCl, 25 mM CaCl2, 0.005% Tween®
For the measurements, a fresh 0.92 µM trypsin solution was prepared from the storage aliquot and kept on ice.
A stock solution of the substrate BAPNA (Nα-Benzoyl-DL-arginine 4-nitroanilide hydrochloride) at the concentration of 50 mM in
aqueous dimethyl sulfoxide (DMSO) (100 mg of BAPNA in 4.6 mL of DMSO:water mixture 1:1) was pre pared and stored at RT.
peptide solutions at the concentration of 100 µM, which was further diluted to 10, 1, or 0.1 µM if required, were prepared in Milli-Q®
For the determination of IC50, a double dilution series of inhibit ors were prepared in a 96 -well plate (12 concentrations, two repeats
for each concentration, 200 µL of Tris buffer in each well). Subsequently, a trypsin solution (20 µL, 150 nM) was added to ea ch well
with the tested peptide and to the control row. Soluti ons in each well were intensely mixed using a multichannel pipette (from lower
concentration to higher). After a pre -incubation period (5 min), the substrate BAPNA was added to each well (20 µL, 25 mM).
solutions were thoroughly mixed with the multicha nnel pipette, and the kinetics of substrate hydrolysis was recorded with an interval
of 1 min between measurements over 20 min. The total volume in each well was 240 µL, final trypsin and BAPNA concentrations
were 12.5 nM and 2.08 mM, respectively. The mea n values of the two repeats of the slope of absorption vs. time curves were
calculated. The activities at different inhibitor concentrations were then calculated by taking the control curves’ slope val ues (no
inhibitor) as the 100% enzyme activity. The inh ibition activity IC 50 against α-chymotrypsin (α-chymotrypsin from bovine pancreas
(§10) type II) was measured in the same way except that a different substrate, Ac-EAPF-pNA (Ac-Glu-Ala-Pro-Phe-pNA), was used (20
Inhibitory constants Ki were determined by Lineweaver-Burk (LWB) double-reciprocal analysis according to a published protocol.[S5]
Briefly, a fresh inhibitor/enzyme mixture was prepared in a glass vial and distributed to 2x6 wells (200 µL in each well, enzyme
concentration after dilution 12 nM). An enzyme without an inhibitor was added to the control wells. Aliquots of varying substrate stock
solutions were added with a multichannel pipette to each well. For trypsin inhibition experiments, BAPNA (20 µL per well of 20, 22.7,
26, 29.8, 34, 40 mM) and for α-chymotrypsin Ac-EAPF-pNA (20 µL per well of 16, 12.48, 10, 8, 6.4, 5.44 mM) were used, respectively.
Well contents were thoroughly mixed using a multichannel pipette, and a plate reader was used to monitor the hydrolysis kinetics
(sampling interval of 1 min over 20 min).

For data set [4], the target named is T1, trypsin. Kind of data set: Proteolytic stability: T1-induced hydrolysis rate constants (kH). The note with it: non-photoswitchable reference compound; peptide 50 μM, trypsin 0.5 μM, 50 mM Tris-HCl pH 8.2, 25 mM CaCl2, 0.005% Tween 20, 22°C, analytical HPLC, zero-order fit.
Description: Analysis of the proteolytic stability
(§11) Proteolytic stability of the peptides was characterized by determining hydrolysis rates (kH) by the action of trypsin in a 50 mM Tris–
(§12) HCl buffer, pH 8.2, supplemented with 25 mM CaCl2 and 0.005% Tween®20 at 22°C. The peptides at a concentration of 50 μM were
(§13) mixed with trypsin (0.5 μM) in a 2 mL total volume. At selected time intervals, 70 μL samples of the mixture were taken, quenched
(§14) by addition 130 μL 2% aqueous formic acid, and immediately analyzed by analytical HPLC. The kH values were calculated from the
(§15) time-dependent data assuming zero-order kinetics (zero-order kinetics applies due to the high substrate/enzyme ratio of 100 to 1).
(§16) For the fitting the linear part of the hydrolysis curve was taken excluding the last time point in which the entire peptide inhibitor was
(§17) analogues could hydrolyze at two positions: at the Lys (P1 position) of the inhibitory loop and after the stabilizing loop’s arginine
(§18) residue (P4 position).[S6] The ultimate product (i.e., cleaved at both positions) had, therefore, a MALDI-TOF-MS detectable mass
(§19) The identity of each peak was confirmed by MALDI -TOF-MS. Detection – 220 nm, hydrolysis time is indicated at each chromatogram.
Data set [5] addresses T3, α-chymotrypsin from bovine pancreas type II (Bos taurus, UniProt P00766). The data set is described as follows: α-Chymotrypsin inhibition, IC50 at fixed enzyme and substrate concentration. It counts as biochemical. Also on record: host or cells: bovine pancreas.
From the text: as §1, §2, §3, §4, §5, §6

The target of data set [6] is T3, α-chymotrypsin from bovine pancreas type II. Kind of data set: α-Chymotrypsin inhibition, Ki by Lineweaver-Burk analysis.
Description: as §7, §8, §9
EpochTM 2 microplate spectrophotometer. For trypsin measurements the Tris buffer (50 mM Tris-HCl, 25 mM CaCl2, 0.005% Tween® […]
solutions were thoroughly mixed with the multicha nnel pipette, and the kinetics of substrate hydrolysis was recorded with an interval […]
calculated. The activities at different inhibitor concentrations were then calculated by taking the control curves’ slope val ues (no […]
as §10
Inhibitory constants Ki were determined by Lineweaver-Burk (LWB) double-reciprocal analysis according to a published protocol.[S5] […]
Well contents were thoroughly mixed using a multichannel pipette, and a plate reader was used to monitor the hydrolysis kinetics […]
Data set [7] deals with T1, trypsin. The note with it: for k H [M^−1 s^−1] (closed): pH 8.2.
Description: Analysis of the proteolytic stability
as §11, §12, §13, §14, §15, §16, §17, §18, §19

Like-named read-outs stand apart in the source and are kept apart here. *1 amine or outer side, *2 acyl side, *3 side chain or, on linkers, in order; H or OH if unused. Where a SMILES comes first, the peptide text is derived from it. Bridges are numbered along the chain shown (N, C = ends). X1 = Cc1sc(C(=O)[C@@H]2CCCN2[*:2])cc1C1=C(c2cc(C(=O)[*:1])sc2C)CCC1

For the compound `CC[C@H](C)[C@H](NC(=O)[C@H](CCCNC(=N)N)NC(=O)[C@H](CCCNC(=N)N)NC(=O)[C@H](Cc1ccccc1)NC(=O)[C@H](CC(C)C)NC(=O)[C@H](CCCNC(=N)N)NC(=O)[C@@H](N)CCCNC(=N)N)C(=O)N[C@@H](CC(C)C)C(=O)N[C@@H](CCCNC(=N)N)C(=O)N[C@@H](Cc1c[nH]c2ccccc12)C(=O)N[C@@H](CC(C)C)C(N)=O` [BP100‐RW] (H-RRLFRRILRWL-NH2), the MIC with other E. coli strains was 0.2 to 0.5 µg/mL.

Regarding `CC(=O)N[C@@H](C)C(=O)N1CCC[C@H]1C(=O)c1cc(C2=C(c3cc(C(=O)N[C@@H](C)C(N)=O)sc3C)CCC2)c(C)s1` [Ac‐Ala‐1‐Ala‐NH2], the “degradation in repeated cycles of reversible photoisomerization” value (“degradation in repeated cycles” for short) in data set [1] (15 cycles, UV 320-400 nm 167 mW/cm2 15 s, visible 570 nm 143 mW/cm2 60 s, 20 mM in deoxygenated water, 22°C, absorbance 575 nm) is “less than 30%”.

The compound `CC[C@H](C)[C@@H]1NC(=O)[C@@H]2CCCN2C(=O)[C@@H]2CCCN2C(=O)[C@H]([C@@H](C)CC)NC(=O)[C@H](CO)NC(=O)[C@H](Cc2ccccc2)NC(=O)[C@H]([C@@H](C)O)NC(=O)[C@@H]2CSSC[C@H](NC1=O)C(=O)N[C@@H](Cc1ccccc1)C(=O)N[C@@H](CC(C)C)C(=O)N1CCC[C@H]1C(=O)c1cc(c(C)s1)C1=C(CCC1)c1cc(sc1C)C(=O)N[C@@H](C(C)C)C(=O)N[C@@H](CCCNC(=N)N)C(=O)N2` [Peptide S5F] (VRCTFSIPPICFL; disulfide 3-11; linker N-C via X1) registered an IC50 against trypsin [2] of 50000 to 100000 nM.

For `CC[C@H](C)[C@@H]1NC(=O)[C@@H]2CCCN2C(=O)[C@@H]2CCCN2C(=O)[C@H]([C@@H](C)CC)NC(=O)[C@H](CO)NC(=O)[C@H](CCCCN)NC(=O)[C@H]([C@@H](C)O)NC(=O)[C@H](C)NC(=O)[C@H](CCCNC(=N)N)NC(=O)c2cc(c(C)s2)C2=C(CCC2)c2cc(sc2C)C(=O)[C@@H]2CCCN2C(=O)[C@H](Cc2ccccc2)NC(=O)[C@H](C)NC1=O` [Peptide S2] (RATKSIPPIAF; linker N-C via X1), in data set [1], the “degradation in repeated cycles” value was “less than 30%”. The Ki in data set [3] (K i [nM] (closed)) stood at 659 ± 33 nM; in data set [3] (K i [nM] (open)), 203 ± 6 nM.

Regarding `CC[C@H](C)[C@@H]1NC(=O)[C@@H]2CCCN2C(=O)[C@@H]2CCCN2C(=O)[C@H]([C@@H](C)CC)NC(=O)[C@H](CO)NC(=O)[C@H](CCCCN)NC(=O)[C@H]([C@@H](C)O)NC(=O)[C@@H]2CSSC[C@H](NC1=O)C(=O)N[C@@H](CCCNC(=N)N)C(=O)N1CCC[C@H]1C(=O)N[C@@H](CC(=O)O)C(=O)NCC(=O)N[C@@H](Cc1ccccc1)C(=O)N2` [SFTI‐1i, reference compound] (cyclo(CRPDGFCTKSIPPI); disulfide 1-7), the IC50 on trypsin [2] (non-photoswitchable reference, trypsin 12.5 nM, BAPNA 2.08 mM, Tris pH 8.2, 5 min pre-incubation, read-out: IC50, nM (trypsin inhibition)) worked out at 15.6 nM. Besides, at trypsin [4], the “k H [M^−1 s^−1]” value is given as 2.0±0.2×10^−5 M^−1 s^−1.

For the compound `CC[C@H](C)[C@@H]1NC(=O)[C@@H]2CCCN2C(=O)[C@@H]2CCCN2C(=O)[C@H]([C@@H](C)CC)NC(=O)[C@H](CO)NC(=O)[C@H](Cc2ccccc2)NC(=O)[C@H]([C@@H](C)O)NC(=O)[C@@H]2CSSC[C@H](NC1=O)C(=O)N[C@@H](Cc1ccccc1)C(=O)N1CCC[C@H]1C(=O)N[C@@H](CC(=O)O)C(=O)NCC(=O)N[C@@H](CCCNC(=N)N)C(=O)N2` [SFTI‐5F, reference compound] (cyclo(CFPDGRCTFSIPPI); disulfide 1-7), the IC50 in data set [5] (non-photoswitchable control, enzyme 12.5 nM, Ac-EAPF-pNA 1.33 mM, read-out: IC50, nM (α-chymotrypsin inhibition)) came out at 6.6 nM. Further, in data set [6], the Ki is 2.8 nM.

For `CC[C@H](C)[C@@H]1NC(=O)[C@@H]2CCCN2C(=O)[C@@H]2CCCN2C(=O)[C@H]([C@@H](C)CC)NC(=O)[C@H](CO)NC(=O)[C@H](CCCCN)NC(=O)[C@H]([C@@H](C)O)NC(=O)[C@@H]2CSSC[C@H](NC1=O)C(=O)N[C@@H](CCCNC(=N)N)C(=O)N[C@@H](CC(C)C)C(=O)N1CCC[C@H]1C(=O)c1cc(c(C)s1)C1=C(CCC1)c1cc(sc1C)C(=O)N[C@@H](C(C)C)C(=O)N[C@@H](Cc1ccccc1)C(=O)N2` [Peptide S10i] (VFCTKSIPPICRL; disulfide 3-11; linker N-C via X1), the “degradation in repeated cycles” value in data set [1] is on record as “less than 30%”. Further, on trypsin [7], the “k H (closed) /k H (open)” value is recorded as 4.2 and the “k H [M^−1 s^−1] (closed)” value is reported as 2.2±0.3×10^−4 M^−1 s^−1. The compound further had a Ki in data set [3] (K i [nM] (closed)) of 44.8 ± 2.2 nM. The compound also returned a Ki in data set [3] (K i [nM] (open)) of 5.1 ± 0.4 nM.

Turning to `CC[C@H](C)[C@@H]1NC(=O)[C@@H]2CCCN2C(=O)[C@@H]2CCCN2C(=O)[C@H]([C@@H](C)CC)NC(=O)[C@H](CO)NC(=O)[C@H](CCCCN)NC(=O)[C@H]([C@@H](C)O)NC(=O)[C@@H]2CSSC[C@H](NC1=O)C(=O)N[C@@H](Cc1ccccc1)C(=O)N[C@@H](CC(C)C)C(=O)N1CCC[C@H]1C(=O)c1cc(c(C)s1)C1=C(CCC1)c1cc(sc1C)C(=O)N[C@@H](C(C)C)C(=O)N[C@@H](CCCNC(=N)N)C(=O)N2` [Peptide S10n] (VRCTKSIPPICFL; disulfide 3-11; linker N-C via X1), on trypsin [7], the “k H (closed) /k H (open)” value is listed as 15.7 and the “k H [M^−1 s^−1] (closed)” value was 3.6±0.3×10^−3 M^−1 s^−1. The compound also showed an IC50 in data set [5] of 50000 to 100000 nM. The Ki in data set [3] (K i [nM] (closed)) was found to be 181 ± 7 nM. Moreover, in data set [3] (K i [nM] (open)), the Ki turned out to be 17.5 ± 0.7 nM.
